In patent publication US10858423B2, “Composition for the treatment of IGF-1R expressing cancer” (PIERRE FABRE MEDICAMENT, priority 2015, dated 2020):
Like-named read-outs stand apart in the source and are kept apart here. Where a SMILES comes first, the peptide text is derived from it. [ ]: non-standard residue; d: D form. The star is where a group is joined. Dolaproine = CO[C@@H]([C@@H]1CCCN1)[C@@H](C)C(=O)O; Dil = CC[C@H](C)[C@H](NC)[C@@H](CC(=O)O)OC; X2 = CNc1ccc(CCN(C)[C@H](C(=O)*)C(C)C)cc1; X3 = CC(C)C(C(=O)*)N(C)CCc1ccc(C(=O)O)cc1; X1 = CC(C)[C@@H](C(=O)*)N(C)Cc1cccc(N)c1

Key:
MDA-MB-231 cells = assay: ATPlite antiproliferative assay, MDA-MB-231; assay type: cell-based; settings: Homo sapiens
Method: (§1) A549 (Non Small Cell Lung Cancer—ATCC CCL-185) and MDA-MB-231 (breast adenocarcinoma—ATCC HTB-26) cells were cultured in Minimum Essential Medium Eagle (MEM) with 5% fetal calf serum (FCS) and Dulbecco's modified Eagle Medium (DMEM) with 10% FCS respectively. MCF7 (breast ductal carcinoma—ATCC HTB-22) and SN-12C (kidney carcinoma—ATCC) cells were maintained in RPMI1640 medium (without phenol red for MCF7 cells) containing 10% FCS. All the media were supplemented with fungizone (1.25 μg/mL) and penicillin-streptomycin (100 U/100 μg/mL). Cells were cultured under standard conditions in an incubator at 37° C., 5% CO2 and 95% atmospheric humidity.
(§2) Selected drugs were investigated for their antiproliferative activity using an ATPlite proliferation assay (Perkin Elmer, Villebon sur Yvette, France) on a comprehensive panel of 4 cell lines. Cells were seeded in 96 well plates (10^3 cells/well for A549, 2.10^3 for MCF7, MDA-MB-231 and SN12C) at day 0 at a concentration to ensure cells remained in logarithmic cell growth phase throughout the 72 h drug treatment period. After a 24 h incubation period, all the cells were treated with serial dilutions of the tested compounds (11 μL of a 10× solution in 1% DMSO—6 wells/condition). To avoid adherence of the compounds onto the tips, tips were changed between two consecutive dilutions. Cells were then placed in 37° C., 5% CO2 incubator. On day 4, cell viability was evaluated by dosing the ATP released by viable cells. The number of viable cells was analyzed in comparison with the number of solvent treated cells. The EC50 values were determined with curve fitting analysis (non linear regression model with a sigmoidal dose response, variable hill slope coefficient), performed with the algorithm provided by the GraphPad Software (GraphPad Software Inc., CA, USA).

A549 cells = assay: ATPlite antiproliferative assay, A549; assay type: cell-based; settings: Homo sapiens
Method: as §1, §2

IGF-1R = IGF-1R (Homo sapiens, UniProt P08069); settings: background statement; cited from earlier work
lysosome functions = assay: inhibition of antibody degradation by lysosome inhibitor; assay type: cell-based; settings: cells with 10 μg/ml Ab, 2 h at 37° C.
Method: In order to confirm that second IGF-1R antibodies Ab reached the lysosome were they are degraded, cells were treated or not with bafilomycine A1, a potent inhibitor of lysosome functions. Cells were then incubated with 10 μg/ml of Ab to be tested at 4° C., washed and incubated for 2 h at 37° C. The internalized Ab was detected after cell permeabilisation using a secondary anti-mouse IgG-Alexa 488 Ab.

MCF7 cells = assay: ATPlite antiproliferative assay, MCF7; assay type: cell-based; settings: Homo sapiens
Method: as §1
(§3) Selected drugs were investigated for their antiproliferative activity using an ATPlite proliferation assay (Perkin Elmer, Villebon sur Yvette, France) on a comprehensive panel of 4 cell lines. […] On day 4, cell viability was evaluated by dosing the ATP released by viable cells. The number of viable cells was analyzed in comparison with the number of solvent treated cells. The EC50 values were determined with curve fitting analysis (non linear regression model with a sigmoidal dose response, variable hill slope coefficient), performed with the algorithm provided by the GraphPad Software (GraphPad Software Inc., CA, USA).

SN-12C cells = assay: ATPlite antiproliferative assay, SN12C; assay type: cell-based; settings: Homo sapiens
Method: as §1, §3

[1] = MDA-MB-231, comparative examples table, read-out: EC50 (M) MDA-MB-231
[2] = A549, comparative examples table, read-out: EC50 (M) A549

## CC[C@H](C)[C@@H]([C@@H](CC(=O)N1CCC[C@H]1[C@H](OC)[C@@H](C)C(=O)N[C@@H](Cc1ccccc1)C(=O)O)OC)N(C)C(=O)[C@@H](NC(=O)[C@H](C(C)C)N(C)CCc1ccc(NC)cc1)C(C)C [Compound 13, (S)-2-((2R,3R)-3-((S)-1-((3R,4S,5S)-4-((S)—N,3-dimethyl-2-((S)-3-methyl-2-(methyl(4-(methylamino)phenethyl)amino)butanamido)butanamido)-3-methoxy-5-methylheptanoyl)pyrrolidin-2-yl)-3-methoxy-2-methylpropanamido)-3-phenylpropanoic acid, trifluoroacetic Acid] (X2-V[Dil][Dolaproine]F-OH)
MDA-MB-231 cells; [1]
  EC50: 7.95e-08 M
MDA-MB-231 cells; MDA-MB-231, read-out: EC50
  EC50: 7.95e-08 M
A549 cells; [2]
  EC50: 2.71e-08 M

## CC[C@H](C)[C@@H]([C@@H](CC(=O)N1CCC[C@H]1[C@H](OC)[C@@H](C)C(=O)N[C@@H](Cc1ccccc1)C(=O)OC)OC)N(C)C(=O)[C@@H](NC(=O)C(C(C)C)N(C)CCc1ccc(C(=O)O)cc1)C(C)C (some centres unmarked) [compound 1, reference compound] (X3-V[Dil][Dolaproine]F-OMe)
MDA-MB-231 cells; [1]
  EC50: 2.29e-09 M
A549 cells; [2]
  EC50: 3.76e-09 M

## CC[C@H](C)[C@@H]([C@@H](CC(=O)N1CCC[C@H]1[C@H](OC)[C@@H](C)C(=O)N[C@@H](Cc1ccccc1)C(=O)OC)OC)N(C)C(=O)[C@@H](NC(=O)[C@H](C(C)C)N(C)CCc1ccc(NC)cc1)C(C)C [Compound 12, methyl (S)-2-((2R,3R)-3-((S)-1-((3R,4S,5S)-4-((S)—N,3-dimethyl-2-((S)-3-methyl-2-(methyl(4-(methylamino)phenethyl)amino)butanamido)butanamido)-3-methoxy-5-methylheptanoyl)pyrrolidin-2-yl)-3-methoxy-2-methylpropanamido)-3-phenylpropanoate, trifluoroacetic Acid] (X2-V[Dil][Dolaproine]F-OMe)
MDA-MB-231 cells; [1]
  EC50: 5.8e-10 M
MDA-MB-231 cells; MDA-MB-231, read-out: EC50
  EC50: 5.8e-10 M
A549 cells; [2]
  EC50: 1.48e-10 M

## IGF2: insulin-like growth factor 2, ligand of IGF-1R
IGF-1R
  Kd: ~1 nM

## CC[C@H](C)[C@@H]([C@@H](CC(=O)N1CCC[C@H]1[C@H](OC)[C@@H](C)C(=O)N[C@@H](Cc1ccccc1)C(=O)O)OC)N(C)C(=O)[C@@H](NC(=O)C(C(C)C)N(C)CCc1ccc(C(=O)O)cc1)C(C)C (some centres unmarked) [compound 2, reference compound] (X3-V[Dil][Dolaproine]F-OH)
MDA-MB-231 cells; [1]
  EC50: 9.75e-07 M
A549 cells; [2]
  EC50: 4.03e-07 M

## CO/C1=C\C(C)=C\[C@@H](C)[C@@H](O)[C@@H](C)C/C(C)=C/C=C/[C@H](OC)[C@@H]([C@@H](C)[C@@H](O)[C@H](C)[C@@]2(O)C[C@@H](O)[C@H](C)[C@@H](C(C)C)O2)OC1=O [bafilomycine A1]
Lysosome functions
  effect on degradation of intracellular Ab: prevented the degradation of intracellular Ab

## CC[C@H](C)[C@@H]([C@@H](CC(=O)N1CCC[C@H]1[C@H](OC)[C@@H](C)C(=O)N[C@@H](Cc1ccccc1)C(=O)OC)OC)N(C)C(=O)[C@@H](NC(=O)[C@H](C(C)C)N(C)Cc1cccc(N)c1)C(C)C [Compound 15, methyl (S)-2-((2R,3R)-3-((S)-1-((3R,4S,5S)-4-((S)-2-((S)-2-((3-aminobenzyl) (methyl)amino)-3-methylbutanamido)-N,3-dimethylbutanamido)-3-methoxy-5-methylheptanoyl)pyrrolidin-2-yl)-3-methoxy-2-methylpropanamido)-3-phenylpropanoate, trifluoroacetic Acid] (X1-V[Dil][Dolaproine]F-OMe)
MDA-MB-231 cells; MDA-MB-231, 72 h, 72 h drug treatment, read-out: EC50 (M) MDA-MB-231
  EC50: 1.7e-10 M
MDA-MB-231 cells; MDA-MB-231, MDA-MB-231, text bound, read-out: EC50
  EC50: < 1e-07 M
MDA-MB-231 cells; [1]
  EC50: 1.7e-10 M
MDA-MB-231 cells; MDA-MB-231, read-out: EC50
  EC50: 1.7e-10 M
MCF7 cells; 72 h drug treatment, read-out: EC50 (M) MCF-7
  EC50: 7.15e-10 M
MCF7 cells; MCF-7, text bound, read-out: EC50
  EC50: < 1e-07 M
SN-12C cells; 72 h drug treatment, read-out: EC50 (M) SN12C
  EC50: 2.18e-10 M
SN-12C cells; text bound, read-out: EC50
  EC50: < 1e-07 M
A549 cells; A549, 72 h drug treatment, read-out: EC50 (M) A549
  EC50: 1.45e-10 M
A549 cells; [2]
  EC50: 1.45e-10 M
A549 cells; A549, text bound, read-out: EC50
  EC50: < 1e-07 M
